Source: US20250171438A1 (Agios Pharmaceuticals, Inc., priority 2022, published 2025)

Target: T1, human PAH with the R408W mutation (Homo sapiens, UniProt P00439, R408W)
T1 construct: expressed in transfected cells
T1 sequence (P00439 1-452 R408W): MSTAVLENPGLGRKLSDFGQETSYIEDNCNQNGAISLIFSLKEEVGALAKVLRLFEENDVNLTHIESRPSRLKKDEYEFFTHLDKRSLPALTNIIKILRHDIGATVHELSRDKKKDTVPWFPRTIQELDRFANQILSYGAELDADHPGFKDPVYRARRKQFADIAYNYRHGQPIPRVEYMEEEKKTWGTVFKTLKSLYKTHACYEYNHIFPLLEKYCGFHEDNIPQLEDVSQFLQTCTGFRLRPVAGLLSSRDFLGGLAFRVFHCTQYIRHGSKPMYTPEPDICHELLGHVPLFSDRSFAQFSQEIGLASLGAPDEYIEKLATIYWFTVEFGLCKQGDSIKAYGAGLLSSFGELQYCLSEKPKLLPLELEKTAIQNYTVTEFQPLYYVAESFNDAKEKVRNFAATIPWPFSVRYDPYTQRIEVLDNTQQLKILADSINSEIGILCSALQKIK
Assay: Cell Based Phenylalanine Flux Assay
Details: A375 cells expressing human R408W PAH; 24 hrs compound incubation; 13C-Tyrosine by LC-MS; average where tested multiple times; read-out: AC50

| AC50 | SMILES |
| --- | --- |
| 1 to 5 µM | O=C(CC1CC1)N1CCc2[nH]cnc2[C@@H]1c1nc2ccccc2s1 [Example 1072, (R)-1-(4-(benzo[d]thiazol-2-yl)-6,7-dihydro-1H-imidazo[4,5-c]pyridin-5(4H)-yl)-2-cyclopropylethanone] |
| 1 to 5 µM | O=C(C1CC1)N1CCc2[nH]cnc2[C@H]1c1nc2ccccc2s1 [Example 1073] |
| > 5 µM | O=C(C1CC1)N1CCc2[nH]cnc2[C@@H]1c1nc2ccccc2s1 [Example 1074, (R)-(4-(benzo[d]thiazol-2-yl)-6,7-dihydro-1H-imidazo[4,5-c]pyridin-5(4H)-yl)(cyclopropyl)methanone] |
| 0.5 to 1 µM | O=C(CCC1CC1)N1CCc2[nH]cnc2[C@H]1c1nc2cc(F)ccc2s1 [Example 1075, (S)-3-cyclopropyl-1-(4-(5-fluorobenzo[d]thiazol-2-yl)-6,7-dihydro-1H-imidazo[4,5-c]pyridin-5(4H)-yl)propan-1-one] |
| 1 to 5 µM | O=C(CCC1CC1)N1CCc2[nH]cnc2[C@@H]1c1nc2cc(F)ccc2s1 [Example 1076, (R)-3-cyclopropyl-1-(4-(5-fluorobenzo[d]thiazol-2-yl)-6,7-dihydro-1H-imidazo[4,5-c]pyridin-5(4H)-yl)propan-1-one] |
| 1 to 5 µM | O=C(CCc1nccs1)N1CCc2[nH]cnc2[C@H]1c1nc2c(F)cccc2s1 [Example 1077, (S)-1-(4-(4-fluorobenzo[d]thiazol-2-yl)-6,7-dihydro-1H-imidazo[4,5-c]pyridin-5(4H)-yl)-3-(thiazol-2-yl)propan-1-one] |
| > 5 µM | O=C(CCc1nccs1)N1CCc2[nH]cnc2[C@@H]1c1nc2c(F)cccc2s1 [Example 1078, (R)-1-(4-(4-fluorobenzo[d]thiazol-2-yl)-6,7-dihydro-1H-imidazo[4,5-c]pyridin-5(4H)-yl)-3-(thiazol-2-yl)propan-1-one] |
| 0.5 to 1 µM | Cc1csc(CCC(=O)N2CCc3[nH]cnc3[C@H]2c2nc3ccccc3s2)n1 [Example 1079] |
| > 5 µM | Cc1csc(CCC(=O)N2CCc3[nH]cnc3[C@@H]2c2nc3ccccc3s2)n1 [Example 1080, (R)-1-(4-(benzo[d]thiazol-2-yl)-6,7-dihydro-1H-imidazo[4,5-c]pyridin-5(4H)-yl)-3-(4-methylthiazol-2-yl)propan-1-one] |
| 0.5 to 1 µM | O=C(CCc1nccs1)N1CCc2[nH]cnc2[C@H]1c1nc2ccc(Br)cc2s1 [Example 1081, (S)-1-(4-(6-bromobenzo[d]thiazol-2-yl)-6,7-dihydro-1H-imidazo[4,5-c]pyridin-5(4H)-yl)-3-(thiazol-2-yl)propan-1-one] |
| > 5 µM | O=C(CCc1nccs1)N1CCc2[nH]cnc2[C@@H]1c1nc2ccc(Br)cc2s1 [Example 1082, (R)-1-(4-(6-bromobenzo[d]thiazol-2-yl)-6,7-dihydro-1H-imidazo[4,5-c]pyridin-5(4H)-yl)-3-(thiazol-2-yl)propan-1-one] |
| < 0.5 µM | COc1ccn2ncc(C(=O)N3CCc4[nH]cnc4[C@H]3c3nc4ccccc4s3)c2c1 [Example 1083] |
| 1 to 5 µM | COc1ccn2ncc(C(=O)N3CCc4[nH]cnc4[C@@H]3c3nc4ccccc4s3)c2c1 [Example 1084, (R)-(4-(benzo[d]thiazol-2-yl)-6,7-dihydro-1H-imidazo[4,5-c]pyridin-5(4H)-yl)(5-methoxypyrazolo[1,5-a]pyridin-3-yl)methanone] |
| < 0.5 µM | N#Cc1ccn2ncc(C(=O)N3CCc4[nH]cnc4[C@H]3c3nc4ccccc4s3)c2c1 [Example 1085, (S)-3-(4-(benzo[d]thiazol-2-yl)-4,5,6,7-tetrahydro-1H-imidazo[4,5-c]pyridine-5-carbonyl)pyrazolo[1,5-a]pyridine-5-carbonitrile] |
| 1 to 5 µM | N#Cc1ccn2ncc(C(=O)N3CCc4[nH]cnc4[C@@H]3c3nc4ccccc4s3)c2c1 [Example 1086, (R)-3-(4-(benzo[d]thiazol-2-yl)-4,5,6,7-tetrahydro-1H-imidazo[4,5-c]pyridine-5-carbonyl)pyrazolo[1,5-a]pyridine-5-carbonitrile] |
| 0.5 to 1 µM | Cc1ccc2c(C(=O)N3CCc4[nH]cnc4[C@H]3c3nc4ccccc4s3)cnn2c1 [Example 1087] |
| > 5 µM | Cc1ccc2c(C(=O)N3CCc4[nH]cnc4[C@@H]3c3nc4ccccc4s3)cnn2c1 [Example 1088, (R)-(4-(benzo[d]thiazol-2-yl)-6,7-dihydro-1H-imidazo[4,5-c]pyridin-5(4H)-yl)(6-methylpyrazolo[1,5-a]pyridin-3-yl)methanone] |
| 0.5 to 1 µM | O=C(CCc1nnc(Br)s1)N1CCc2[nH]cnc2[C@H]1c1nc2ccccc2s1 [Example 1089] |
| > 5 µM | O=C(CCc1nnc(Br)s1)N1CCc2[nH]cnc2[C@@H]1c1nc2ccccc2s1 [Example 1090, (R)-1-(4-(benzo[d]thiazol-2-yl)-6,7-dihydro-1H-imidazo[4,5-c]pyridin-5(4H)-yl)-3-(5-bromo-1,3,4-thiadiazol-2-yl)propan-1-one] |

| AC50 | SMILES |
| --- | --- |
| > 5 µM | O=C(c1nc2c(F)cccc2s1)N1CCc2[nH]cnc2[C@@H]1c1nc2ccccc2s1 [Example 1091, (R)-(4-(benzo[d]thiazol-2-yl)-6,7-dihydro-1H-imidazo[4,5-c]pyridin-5(4H)-yl)(4-fluorobenzo[d]thiazol-2-yl)methanone] |
| 0.5 to 1 µM | O=C(c1nc2c(F)cccc2s1)N1CCc2[nH]cnc2[C@H]1c1nc2ccccc2s1 [Example 1092] |
| 0.5 to 1 µM | O=C(CCC1CC1)N1CCc2[nH]cnc2[C@H]1c1nc2ccc(F)cc2s1 [Example 1093, (S)-3-cyclopropyl-1-(4-(6-fluorobenzo[d]thiazol-2-yl)-6,7-dihydro-1H-imidazo[4,5-c]pyridin-5(4H)-yl)propan-1-one] |
| > 5 µM | O=C(CCC1CC1)N1CCc2[nH]cnc2[C@@H]1c1nc2ccc(F)cc2s1 [Example 1094, (R)-3-cyclopropyl-1-(4-(6-fluorobenzo[d]thiazol-2-yl)-6,7-dihydro-1H-imidazo[4,5-c]pyridin-5(4H)-yl)propan-1-one] |
| 0.5 to 1 µM | O=C(c1nc2cc(F)ccc2s1)N1CCc2[nH]cnc2[C@H]1c1nc2ccccc2s1 [Example 1095] |
| > 5 µM | O=C(c1nc2cc(F)ccc2s1)N1CCc2[nH]cnc2[C@@H]1c1nc2ccccc2s1 [Example 1096, (R)-(4-(benzo[d]thiazol-2-yl)-6,7-dihydro-1H-imidazo[4,5-c]pyridin-5(4H)-yl)(5-fluorobenzo[d]thiazol-2-yl)methanone] |
| 0.5 to 1 µM | O=C(c1cnco1)N1CCc2[nH]cnc2[C@H]1c1nc2ccccc2s1 [Example 1097] |
| > 5 µM | O=C(c1cnco1)N1CCc2[nH]cnc2[C@@H]1c1nc2ccccc2s1 [Example 1098, (R)-(4-(benzo[d]thiazol-2-yl)-6,7-dihydro-1H-imidazo[4,5-c]pyridin-5(4H)-yl)(oxazol-5-yl)methanone] |
| 1 to 5 µM | O=C(c1cnn2ccccc12)N1CCc2[nH]cnc2[C@H]1c1nc2ccc(F)cc2s1 [Example 1099, (S)-(4-(6-fluorobenzo[d]thiazol-2-yl)-6,7-dihydro-1H-imidazo[4,5-c]pyridin-5(4H)-yl)(pyrazolo[1,5-a]pyridin-3-yl)methanone] |
| > 5 µM | O=C(c1cnn2ccccc12)N1CCc2[nH]cnc2[C@@H]1c1nc2ccc(F)cc2s1 [Example 1100, (R)-(4-(6-fluorobenzo[d]thiazol-2-yl)-6,7-dihydro-1H-imidazo[4,5-c]pyridin-5(4H)-yl)(pyrazolo[1,5-a]pyridin-3-yl)methanone] |
| 0.5 to 1 µM | O=C(c1nccs1)N1CCc2[nH]cnc2[C@H]1c1nc2cccc(F)c2s1 [Example 1101, (S)-(4-(7-fluorobenzo[d]thiazol-2-yl)-6,7-dihydro-1H-imidazo[4,5-c]pyridin-5(4H)-yl)(thiazol-2-yl)methanone] |
| 1 to 5 µM | O=C(c1nccs1)N1CCc2[nH]cnc2[C@@H]1c1nc2cccc(F)c2s1 [Example 1102, (R)-(4-(7-fluorobenzo[d]thiazol-2-yl)-6,7-dihydro-1H-imidazo[4,5-c]pyridin-5(4H)-yl)(thiazol-2-yl)methanone] |
| 0.5 to 1 µM | O=C(c1cnn2ccc(F)cc12)N1CCc2[nH]cnc2[C@H]1c1nc2ccccc2s1 [Example 1103] |
| 1 to 5 µM | O=C(c1cnn2ccc(F)cc12)N1CCc2[nH]cnc2[C@@H]1c1nc2ccccc2s1 [Example 1104, (R)-(4-(benzo[d]thiazol-2-yl)-6,7-dihydro-1H-imidazo[4,5-c]pyridin-5(4H)-yl)(5-fluoropyrazolo[1,5-a]pyridin-3-yl)methanone] |
| 0.5 to 1 µM | O=C(c1ncn2ccccc12)N1CCc2[nH]cnc2[C@H]1c1nc2cc(F)ccc2s1 [Example 1105, (S)-(4-(5-fluorobenzo[d]thiazol-2-yl)-6,7-dihydro-1H-imidazo[4,5-c]pyridin-5(4H)-yl)(imidazo[1,5-a]pyridin-1-yl)methanone] |
| 1 to 5 µM | O=C(c1ncn2ccccc12)N1CCc2[nH]cnc2[C@@H]1c1nc2cc(F)ccc2s1 [Example 1106, (R)-(4-(5-fluorobenzo[d]thiazol-2-yl)-6,7-dihydro-1H-imidazo[4,5-c]pyridin-5(4H)-yl)(imidazo[1,5-a]pyridin-1-yl)methanone] |
| < 0.5 µM | O=C(c1cnn2ccc(Cl)cc12)N1CCc2[nH]cnc2[C@H]1c1nc2ccccc2s1 [Example 1107] |
| 1 to 5 µM | O=C(c1cnn2ccc(Cl)cc12)N1CCc2[nH]cnc2[C@@H]1c1nc2ccccc2s1 [Example 1108, (R)-(4-(benzo[d]thiazol-2-yl)-6,7-dihydro-1H-imidazo[4,5-c]pyridin-5(4H)-yl)(5-chloropyrazolo[1,5-a]pyridin-3-yl)methanone] |
